The values below are quoted from earlier work in patent publication US20140332384A1, “BIOMARKERS RELATED WITH A SUPRA-N[…] STATE OF SELENIUM AND DIAGNOSIS METHOD IN WHICH SAID […] IDENTIFIED” (UNIVERSIDAD DE SANTIAGO DE CHILE, priority 2011, published 2014).

Molecules are shown by their SMILES.

For this data set the following is noted: cited from earlier work.

On to `[Se]` [selenium], for which the “Maximum Tolerable Intake” value (adult women and adult men) is 400 µg/day. The “Selenium content of a food diet that could produce toxic effects” value (estimated, per kg of food diet) is reported as “more than 1 mg per kg”.
